Data as given in US20020040203A1, “Method for transdermal or intradermal delivery of molecules” (priority 2000, published 2002).

Assays:
[1] = Transport of model molecules through heat-stripped porcine stratum corneum by electroporation, Hanson Vertical Diffusion chamber; format: in vitro ADME; conditions: for transport across the SC to the acceptor chamber: negative pulses 375V, 1 msec, 1 Hz, up to 30 min
Protocol: Stratum corneum layer was obtained from porcine skin by heat treatment as follows. Fresh pieces of porcine skin were wrapped in aluminum foil and placed in a 60° C. water bath for 5 minutes. The SC was gently pulled away from the remaining tissue. The SC can be used directly or stored on glass microscope slides at 4° C. The SC was then used in a Hanson Vertical Diffusion chamber. This simple device is an accepted model system for studying transport through skin by those skilled in the art. This device contains two compartments which are filled with a suitable buffer (10 mM Tris, 100 mM NaCl, 1 mM EDTA at pH 8.0). One of the compartments acts as the donor and the other as the acceptor. The liposomes and the test molecule are added to the donor chamber. The outermost layer of the skin, the SC forms an effective barrier to the transport of biomolecules. The upper chamber was considered as the outer surface of the skin and the lower chamber as the skin directly below the SC. Platinum wires served as electrodes, one was placed in the upper chamber and the other in the lower chamber. Electric pulses were applied across the SC using a pulse generator.
Lipid formulations were prepared as follows. Dioleylphosphatidylglycerol and dioleylphosphatidyl choline was mixed at an approximate 1:1 molar ratio and dispersed in buffer by vigorous vortexing resulting in the formation of multilamellar lipid vesicles (MLV). The molecular weights of the molecules tested range from 200 to 600. The model molecules were chosen for their charge and their respective solubility.
[…] The model molecule as a solution in buffer was then added to the upper chamber. During the next 10 min no pulses were applied. An aliquot of the buffer was removed from the lower (acceptor) chamber. Pulses were next applied for 10, 20 and 30 min and aliquots removed from the lower chamber for analysis at 10, 20 and 30 min to determine delivery of the model molecule. Another aliquot was removed from the lower chamber 10 min after cessation of pulse application. In control studies, the SC was pre-pulsed for 10 min with buffer only (no lipid) and then the model molecule added in the upper chamber and pulsed for three further periods of 10 min each.
The amount of the model molecule transported to the acceptor chamber was measured in the aliquots removed at different times by using fluorescence spectroscopy.

[2] = cited from earlier work; for charge: pH 8 stated for PP-IX
[3] = cited from earlier work
[4] = SC pre-treated with DOPG:DOPC lipid formulation
[5] = absence of lipid formulation (pre-pulsed with buffer only)

Compound | transport across the SC to the acceptor chamber [1, 4] | transport across the SC to the acceptor chamber [1, 5] | solubility [2] | charge [2] | concentration in the lower chamber after cessation of pulse application ([1]; negative pulses, SC pre-treated with lipid formulation, 10 min without pulse) | effect of lipid formulation on transport ([1]; pulses of positive polarity, DOPG:DOPC MLV present) | log P (partition coefficient between octanol and water) [3]
methylated protoprophyrin IX [MPP-IX] | enhanced transport | very low transport | soluble only in the presence of detergents | no charge |  |  | 
CN(C)c1ccc2nc3ccc(=[N+](C)C)cc-3sc2c1 [MB, Methylene Blue] | large amount of MB transported across the SC | very little MB present in the acceptor chamber |  | positively charged | continued increase in MB concentration in the lower chamber | inhibited the transport of MB | 
C=CC1=C(C)c2cc3[nH]c(cc4nc(cc5[nH]c(cc1n2)c(C)c5CCC(=O)O)C(CCC(=O)O)=C4C)c(C)c3C=C [PP-IX, protoporphyrin IX] | an increase in the transport in the presence of the added lipid | significant transport of PP-IX across the SC | low solubility |  |  |  | 
bleomycin |  |  |  |  |  |  | very negative
